From patent publication US20120195911A1, “Method of treatment of cancer patients” (priority 2011, published 2012)

Assays:
[1] = system: neuroblastoma cells infected by HCMV; conditions: long-term cultured HCMV-infected neuroblastoma cells resistant to cysplatin and etoposide; virus reproduction blocked; cited from earlier work
[2] = system: EBV-associated nasopharyngeal carcinomas; conditions: nasopharyngeal carcinomas in athymus mice; cited from earlier work
Stomach Cancer = test: Comparative study of treatment with Valacyclovir before standard treatment, stomach cancer patients; format: in vivo, human; conditions: Valacyclovir (Acyclovir) before standard treatment or with chemotherapy
Protocol: (§1) All the patients belonged to the second clinical group with stage 3 illness. In the capacity of a control group (Control), the following were used: 10 cervical cancer patients, 12 stomach cancer patients, and 10 mammary gland cancer patients from clinical group 2 with stage 3 illnesses. In the control group the patients were treated without the use of Valacyclovir and Acyclovir. As may be seen in the table, the remission periods due to the use of Valacyclovir (Acyclovir) before standard methods of treatment or in combination with chemotherapy doubled for mammary gland cancer and quintupled for stomach cancer. In the majority of the patients (more than 72%), metastasis was not seen for the entire period of observation (3 years).

EBV = EBV antigens in patient's lymphocytes (fluorescing antibody method); format: in vivo, human; conditions: Patient (stomach cancer), combination with immunoglobulins and Laferobion; 80% before treatment
Protocol: (§2) EBV antigens were found 80% of the lymphocytes and CMV was found in 90% of the lymphocytes using the FAM in before treatment with Valacyclovir. The patient then underwent combination therapy with antiviral drugs: immunoglobulin to treat the EBV at a dosage of 13 ml of a 10% solution immediately (7 ml per injection) intravenously once a week three times; immunoglobulin to treat the CMV at a dosage of 13 ml of a 10% solution immediately (7 ml per injection) intramuscularly once a week three times; two 1 g tablets of Valacyclovir 3 times per day in 3 courses of 7 days each; Laferobion 3 million IU once per day daily for seven days in a row. Then a subtotal resection was performed on the patient's stomach. Postoperative chemotherapy was not used. […] Laboratory study of the patient's lymphocytes every year found CMV and EBV antigens in 10-15% of the cells.

[3] = system: adenocarcinomas with various localizations; test: Comparative study, all cancer patients of the experimental group together; format: in vivo, human; conditions: for long-term remission of the illness: fewer than 3 courses of seven days
Protocol: as §1, with “years). […] The use of the antiviral drug is not useful for a longer period, as the remission period begins for the patient and the drug is ineffective.” for “years).”

cytomegalovirus (CMV) = test: CMV antigens in patient's lymphocytes (fluorescing antibody method / indirect immunofluorescence reaction); format: in vivo, human
Protocol: (§3) […] Before treatment with Acyclovir, the antigen to cytomegalovirus (CMV) was found in 85% of the patient's lymphocytes through the fluorescing antibody method (FAM) and therapy was administered with the use of Valacyclovir. 1 g of medication was given 3 times a day for 7 days in a row in three courses in intervals of seven days each. Then the patient underwent a radical mastectomy. Postoperative chemotherapy was not used. […] CMV antigens were not found in the lymphocytes.
(§4) […] CMV antigens were found using the FAM in 90% of the lymphocytes before treatment with Valacyclovir. The patient then underwent Valacyclovir therapy. 2 g of medication was administered 4 times a day for 7 days in a row in three courses in intervals of seven days each. Then a subtotal resection was performed on the patient's stomach. Postoperative chemotherapy was not used. […] Laboratory study of the patient's lymphocytes every year found CMV antigens in 10-15% of the cells. At the end of the first and second year, the patient received another course of Valacyclovir.
(§5) […] CMV was found with the FEM in 80% of lymphocytes before treatment with Valacyclovir. The patient then underwent Valacyclovir therapy. 2 g of medication was administered 4 times a day for 7 days in a row in three courses in intervals of seven days each. Then the patient underwent a standard schedule of radiological treatment. Chemotherapy was not used. […] Laboratory study of the patient's lymphocytes every year found CMV antigens, but only in 20-30% of the cells. The patient underwent two more courses of treatment with Valacyclovir according to the schedule above once per year.
(§6) […] Valacyclovir was administered as treatment. CMV antigens were found in 95% of the patient's lymphocytes before treatment with Valacyclovir. 2 g of medication was administered orally 4 times a day for 7 days in a row in three courses in intervals of seven days each in parallel with CVPM chemotherapy. Other treatment methods were not used. […] Laboratory study of the patient's lymphocytes every year found CMV antigens in 10-15% of the cells. The patient underwent two more courses of treatment with Valacyclovir in combination with chemotherapy once per year.
as §2

Mammary Gland Cancer = test: Comparative study of treatment with Valacyclovir before standard treatment, mammary gland cancer patients; format: in vivo, human; conditions: Valacyclovir (Acyclovir) before standard treatment or with chemotherapy
Protocol: as §1

T4N1M0 prostate cancer = test: Case report: Valacyclovir with chemotherapy in prostate cancer; format: in vivo, human; conditions: Patient D., 2 g orally 4 times a day, 7 days, three courses, in parallel with CVPM chemotherapy; three-year period
Protocol: as §6

T3N1M0 stomach cancer = test: Case reports: preoperative Valacyclovir in stomach cancer; format: in vivo, human; conditions: then subtotal resection
Protocol: as §4
EBV antigens were found 80% of the lymphocytes and CMV was found in 90% of the lymphocytes using the FAM in before treatment with Valacyclovir. The patient then underwent combination therapy with antiviral drugs: immunoglobulin to treat the EBV at a dosage of 13 ml of a 10% solution immediately (7 ml per injection) intravenously once a week three times; immunoglobulin to treat the CMV at a dosage of 13 ml of a 10% solution immediately (7 ml per injection) intramuscularly once a week three times; two 1 g tablets of Valacyclovir 3 times per day in 3 courses of 7 days each; Laferobion 3 million IU once per day daily for seven days in a row. Then a subtotal resection was performed on the patient's stomach. Postoperative chemotherapy was not used. […]

T4N1M0 cervical cancer = test: Case report: Valacyclovir before radiation therapy for cervical cancer; format: in vivo, human; conditions: Patient S.
Protocol: as §5

[4] = system: T2N1M0 mammary gland cancer; test: Case report: preoperational Valacyclovir in mammary gland cancer; format: in vivo, human; conditions: Patient L., 1 g 3 times a day, 7 days, three courses, then radical mastectomy; three-year period
Protocol: as §3

For `Nc1nc(O)c2ncn(COC(CO)CO)c2n1` [Ganciclovir], the “sensitivity to the action of antitumor drugs” value [1] is given as “fully restored”.

In the case of `Nc1ccn(C[C@@H](CO)OCP(=O)(O)O)c(=O)n1` [Cidofovir, (S)-1-(3-hydroxy-2-phpsphonyl-methoxypropyl) cytosine], the “apoptosis in EBV-transformed epithelial cells” value [2] is given as “causes a quick induction of apoptosis”.

With `CC(C)[C@H](N)C(=O)OCCOCn1cnc2c(=O)[nH]c(N)nc21` [Valacyclovir] the “change of remission period versus control” value (Stomach Cancer) was “quintupled”, the “EBV antigens in lymphocytes after treatment” value (EBV) was 10-15% and the “patients in whom metastasis was not seen for the entire period of observation” value ([3]; experimental group, observation 3 years) was “more than 72%”. For the same molecule, the “long-term remission of the illness” value ([3]; less than 1 g 3 times a day perorally) was “does not provide long-term remission”, the “CMV antigens in lymphocytes after treatment” value (shortened to “CMV antigens in lymphocytes”) (cytomegalovirus (CMV); Patient (stomach cancer), combination with immunoglobulins and Laferobion, 90% before treatment) was 10-15% and the “CMV antigens in lymphocytes” value (cytomegalovirus (CMV); Patient B. (stomach cancer), yearly study, 90% of lymphocytes before treatment) was 10-15%. The “CMV antigens in lymphocytes” value (cytomegalovirus (CMV); Patient D. (prostate cancer), yearly study, 95% of lymphocytes before treatment) was 10-15%, the “CMV antigens in lymphocytes” value (cytomegalovirus (CMV); Patient L., yearly checkup by IIR, 85% of lymphocytes before treatment) was “not found” and the “CMV antigens in lymphocytes” value (cytomegalovirus (CMV); Patient S. (cervical cancer), yearly study, 80% of lymphocytes before treatment) was 20-30%. The “change of remission period versus control” value (Mammary Gland Cancer) was “doubled”, the relapses (T4N1M0 prostate cancer) was “No relapses were seen” and the relapses (T3N1M0 stomach cancer; Patient B., 2 g 4 times a day, 7 days, three courses, three-year period) was “No relapses were seen”. The relapses (T3N1M0 stomach cancer; Patient, Valacyclovir combined with EBV and CMV immunoglobulins and Laferobion, four-year period) was “No relapses were seen”, the relapses (T4N1M0 cervical cancer; 2 g 4 times a day, 7 days, three courses, then radiological treatment, three-year period) was “No relapses were seen” and the metastasis (T4N1M0 cervical cancer; during the observation time) was “no metastasis”. For the same molecule, the relapses [4] was “No relapses were seen”.

With `Nc1nc2c(ncn2COCCO)c(=O)[nH]1` [Acyclovir] the “long-term remission of the illness” value ([3]; less than 0.5 g 2 times a day in injected form) was “does not provide long-term remission”.
